# Test results from US6589989B1, “Treatment of cell-mediated immune diseases” (Basilea Pharmaceutica AG, priority 1997, dated 2003).
# “And” between values parts separate entries of the source, which are not always exact repeats. Identical values can stand only once.
# Columns and labels:
# chronic hand eczema = experiment: Once daily oral 9-cis retinoic acid in patients with chronic hand eczema refractory to conventional treatment
# Protocol: Fifteen patients, eight men and seven women, with chronic hand eczema, refractory to conventional treatment, were treated with 9-cis retinoic acid. Their mean age was 52.3 years, range 21-83. Before the start of 9-cis retinoic acid therapy, their eczema had already lasted for 3 months to 8 years, with a mean of 29 months. […] Therapy consisted in a once daily oral dose of 40 mg 9-cis retinoic acid, given in the form of two soft gelatin capsules containing 20 mg of 9-cis retinoic acid each, with breakfast. 8 patients received in the first week only 20 mg. Mean duration of treatment was 2 months, range 1-3 months. The following lesions and symptoms were recorded on a 0-4 scale (0=none, 1=mild, 2=moderate and 4=severe) and used for evaluating the therapeutic effect: Erythema, papules and vesicles, desquamation, hyperkeratosis, rhagades and pruritus/pain. Side effects, particularly those belonging to the hypervitaminosis A syndrome, were recorded: Headache, dry lips, other mucocutaneous manifestations, muscoskeletal symptoms and laboratory abnormalities.
# [1] = system: non-malignant skin-disorders, such as acne, psoriasis, lamellar ichthyosis, Darier's disease and lichen planus; settings: low daily doses of 20 to 60 mg
# [2] = higher doses; Kurie et al. 1996, Miller et al. 1996; cited from earlier work
# [3] = system: T-helper cell type 1 mediated immune diseases; experiment: Low oral daily doses of 9-cis retinoic acid in T-helper cell type 1 mediated immune diseases
# [4] = system: malignant skin diseases and solid tumors of other organs; experiment: High oral daily doses of 9-cis retinoic acid in malignant skin diseases and solid tumors; type: in vivo; settings: high oral daily doses of up to 300 mg
# [5] = 0-4 scale, individual patient, after 40 mg oral daily for 1-3 months
# [6] = 0-4 scale, individual patient, before 40 mg oral daily
# [7] = for all 15 patients, 40 mg daily oral
# [8] = for the 14 responding patients, 40 mg daily oral
# [9] = for the 14 responding patients, 40 mg daily oral, listed as 9-cis retinoic acid
# [10] = individual patient, 40 mg oral daily for 1-3 months
structure (smiles),measurement,setting,value
"CC1=C(/C=C/C(C)=C\C=C\C(C)=C\C(=O)O)C(C)(C)CCC1 [9-cis RA, 9-cis retinoic acid]","Desquamation, after treatment",chronic hand eczema; [5],1 (5×) and 0 (6×) and 3/3 and 0/0 (2×) and 0.5
same,"Erythema, after treatment",chronic hand eczema; [5],0 (9×) and 0.5 (2×) and 2 and 0/0 and 2/2 and 1
same,"Hyperkeratosis, after treatment",chronic hand eczema; [5],0 (8×) and 1/1 (2×) and 1 (2×) and 3/3 and 0.5 (2×)
same,"Papules, vesicles, after treatment",chronic hand eczema; [5],0 (4×) and 1 (4×) and 0/0 (6×) and 0.5
same,"Pruritus (+ pain), after treatment",chronic hand eczema; [5],0 (6×) and 1 (4×) and 2 (2×) and 7/7 and 0.5 (2×)
same,"Rhagades, after treatment",chronic hand eczema; [5],0 (12×) and 2 and 2/2 and 1
same,"Desquamation, before treatment",chronic hand eczema; [6],2 (4×) and 3 (4×) and 1 (4×) and 3/3 and 0/0 (2×)
same,"Erythema, before treatment",chronic hand eczema; [6],1 (8×) and 2 (4×) and 4 and 0/0 and 2/2
same,"Hyperkeratosis, before treatment",chronic hand eczema; [6],4 and 3 and 1/1 (2×) and 2 (8×) and 1 (2×) and 3/3
same,"Papules, vesicles, before treatment",chronic hand eczema; [6],3 (3×) and 2 (3×) and 1 (3×) and 0/0 (6×)
same,"Pruritus (+ pain), before treatment",chronic hand eczema; [6],2 (3×) and 3 (4×) and 4 (3×) and 5 (4×) and 7/7
same,"Rhagades, before treatment",chronic hand eczema; [6],3 (3×) and 2 (5×) and 1 (5×) and 0.5 and 2/2
same,"Regression of the various lesions and symptoms (erythema, papules and vesicles etc.)",chronic hand eczema; 40 mg daily oral,62-100%
same,Musculoskeletal or other symptoms,"chronic hand eczema; 40 mg daily, 15 patients",no musculoskeletal or other symptoms were observed
same,Overall response of the patients,"chronic hand eczema; all fifteen patients, 40 mg daily",responded markedly
same,"Reduction of Lesion/symptom score, in %, mean",chronic hand eczema; [7],76.3%
same,"Reduction of Lesion/symptom score, in %, range",chronic hand eczema; [7],0-100%
same,"Reduction of Lesion/symptom score, in %, mean",chronic hand eczema; [8],mean 81.8%
same,"Reduction of Lesion/symptom score, in %, range",chronic hand eczema; [8],"for the 14 responding patients 53-100, %"
same,"Reduction of Lesion/symptom score, in %, mean",chronic hand eczema; [9],81.3%
same,"Reduction of Lesion/symptom score, in %, range",chronic hand eczema; [9],53-100%
same,Response assessed by doctor,chronic hand eczema; [10],very good (6×) and good (7×) and no and moderate
same,Response assessed by patient,chronic hand eczema; [10],very good (10×) and good (3×) and moderate and no
same,"Patients with response good, assessment by doctor, number",chronic hand eczema; of 15 patients,7
same,"Patients with response good, assessment by doctor, percent",chronic hand eczema; of 15 patients,(47%)
same,"Patients with response good, assessment by patient, number",chronic hand eczema; of 15 patients,3
same,"Patients with response good, assessment by patient, percent",chronic hand eczema; of 15 patients,(20%)
same,"Patients with response moderate, assessment by doctor, number",chronic hand eczema; of 15 patients,1
same,"Patients with response moderate, assessment by doctor, percent",chronic hand eczema; of 15 patients,(6.5%)
same,"Patients with response moderate, assessment by patient, number",chronic hand eczema; of 15 patients,1
same,"Patients with response moderate, assessment by patient, percent",chronic hand eczema; of 15 patients,(6.5%)
same,"Patients with response no, assessment by doctor, number",chronic hand eczema; of 15 patients,1
same,"Patients with response no, assessment by doctor, percent",chronic hand eczema; of 15 patients,(6.5%)
same,"Patients with response no, assessment by patient, number",chronic hand eczema; of 15 patients,1
same,"Patients with response no, assessment by patient, percent",chronic hand eczema; of 15 patients,(6.5%)
same,"Patients with response slight, assessment by doctor, number",chronic hand eczema; of 15 patients,0
same,"Patients with response slight, assessment by doctor, percent",chronic hand eczema; of 15 patients,(0%)
same,"Patients with response slight, assessment by patient, number",chronic hand eczema; of 15 patients,0
same,"Patients with response slight, assessment by patient, percent",chronic hand eczema; of 15 patients,(0%)
same,"Patients with response very good, assessment by doctor, number",chronic hand eczema; of 15 patients,6
same,"Patients with response very good, assessment by doctor, percent",chronic hand eczema; of 15 patients,(40%)
same,"Patients with response very good, assessment by patient, number",chronic hand eczema; of 15 patients,10
same,"Patients with response very good, assessment by patient, percent",chronic hand eczema; of 15 patients,(67%)
same,"Response considered very good or good (doctor and patient), number of patients",chronic hand eczema; of 15 patients,13
same,"Response considered very good or good (doctor and patient), percent of patients",chronic hand eczema; of 15 patients,87%
same,"Total Score (0-4 scale), after treatment","chronic hand eczema; sum of lesion/symptom scores, individual patient, after 40 mg oral daily for 1-3 months",1 (3×) and 2 (4×) and 4.5 (2×) and 3 and 0 (3×) and 8 and 17/17
same,"Total Score (0-4 scale), before treatment","chronic hand eczema; sum of lesion/symptom scores, individual patient, before 40 mg oral daily",15 and 14 (2×) and 11 (4×) and 10 (2×) and 17 and 9 (2×) and 17/17 and 13 and 8
same,Reduction of score in %,"chronic hand eczema; total score, individual patient, 40 mg oral daily for 1-3 months",93% and 86% and 59% and 61% and 74% and 100% (3×) and 53% and 89% (2×) and 0% and 85% and 82% and 75%
same,Therapeutic effect on non-malignant skin-disorders,[1],no therapeutic effect
same,"Other mucocutaneous manifestations, musculoskeletal or other symptoms",[2],seen with higher doses
same,"Other toxic signs and symptoms of the hypervitaminosis A syndrome, including the laboratory abnormalities","[3]; daily doses typically 20 to 60 mg, oral",not induced
same,Efficacy in treatment of T-helper cell type 1 mediated immune diseases,[3]; low daily doses of 20 to 60 mg,efficacious
same,Objective tumor regressions,[4],did not lead to major objective tumor regressions
same,Side effects,[4],marked to severe side effects
